According to the kinase profiling compilation of Christmann-Franck et al. (2016):

Key:
Assay in all cases: radiometric filter-binding kinase assay, Kinase HotSpot
Conditions in all cases: compound 0.5 µM; ATP 10 µM
CDK5 CDK5R1 p25 (human) = CDK5 CDK5R1 p25 (human) (UniProt Q00535+Q15078)
PRKCH (human) = PRKCH (human) (UniProt P24723)
CDK2 CCNE1 (human) = CDK2 CCNE1 (human) (UniProt P24941+P24864)
CDK5 CDK5R1 p35 (human) = CDK5 CDK5R1 p35 (human) (UniProt Q00535+Q15078)
CDK6 CCND3 (human) = CDK6 CCND3 (human) (UniProt P30281+Q00534)
CDK3 CCNE1 (human) = CDK3 CCNE1 (human) (UniProt Q00526+P24864)
DYRK1B (human) = DYRK1B (human) (UniProt Q9Y463)
LTK (human) = LTK (human) (UniProt P29376)
CDK2 CCNA2 (human) = CDK2 CCNA2 (human) (UniProt P24941+P20248)
CDK1 CCNB1 (human) = CDK1 CCNB1 (human) (UniProt P06493+P14635)
MAP3K7 TAB1 (human) = MAP3K7 TAB1 (human) (UniProt O43318+Q15750)
CDK9 CCNK (human) = CDK9 CCNK (human) (UniProt O75909+P50750)
CDK9 CCNT1 (human) = CDK9 CCNT1 (human) (UniProt P50750+O60563)
CDK6 CCND1 (human) = CDK6 CCND1 (human) (UniProt Q00534+P24385)
CDK1 CCNA2 (human) = CDK1 CCNA2 (human) (UniProt P06493+P20248)
STK33 (human) = STK33 (human) (UniProt Q9BYT3)
CDK4 CCND1 (human) = CDK4 CCND1 (human) (UniProt P24385+P11802)
CDK4 CCND3 (human) = CDK4 CCND3 (human) (UniProt P30281+P11802)
CDK7 CCNH MNAT1 (human) = CDK7 CCNH MNAT1 (human) (UniProt P50613+P51948+P51946)
AURKB (human) = AURKB (human) (UniProt Q96GD4)
FLT3 (human) = FLT3 (human) (UniProt P36888)
AURKC (human) = AURKC (human) (UniProt Q9UQB9)
NEK7 (human) = NEK7 (human) (UniProt Q8TDX7)
NEK6 (human) = NEK6 (human) (UniProt Q9HC98)

CDK2 CCNA2 (human), sequence (P20248 whole entry, looked up, other chains not shown): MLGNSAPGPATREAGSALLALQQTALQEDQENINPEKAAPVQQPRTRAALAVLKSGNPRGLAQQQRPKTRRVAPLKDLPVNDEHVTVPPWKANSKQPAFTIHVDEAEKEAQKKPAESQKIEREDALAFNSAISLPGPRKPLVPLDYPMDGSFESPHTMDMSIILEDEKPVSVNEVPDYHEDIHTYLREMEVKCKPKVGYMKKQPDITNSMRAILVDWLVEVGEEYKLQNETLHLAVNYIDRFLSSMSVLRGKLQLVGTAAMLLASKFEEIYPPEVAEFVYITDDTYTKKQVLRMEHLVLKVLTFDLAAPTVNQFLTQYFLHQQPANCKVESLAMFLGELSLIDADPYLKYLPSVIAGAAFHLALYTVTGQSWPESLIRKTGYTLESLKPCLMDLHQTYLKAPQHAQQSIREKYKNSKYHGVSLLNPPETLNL
STK33 (human), sequence (Q9BYT3 whole entry, looked up): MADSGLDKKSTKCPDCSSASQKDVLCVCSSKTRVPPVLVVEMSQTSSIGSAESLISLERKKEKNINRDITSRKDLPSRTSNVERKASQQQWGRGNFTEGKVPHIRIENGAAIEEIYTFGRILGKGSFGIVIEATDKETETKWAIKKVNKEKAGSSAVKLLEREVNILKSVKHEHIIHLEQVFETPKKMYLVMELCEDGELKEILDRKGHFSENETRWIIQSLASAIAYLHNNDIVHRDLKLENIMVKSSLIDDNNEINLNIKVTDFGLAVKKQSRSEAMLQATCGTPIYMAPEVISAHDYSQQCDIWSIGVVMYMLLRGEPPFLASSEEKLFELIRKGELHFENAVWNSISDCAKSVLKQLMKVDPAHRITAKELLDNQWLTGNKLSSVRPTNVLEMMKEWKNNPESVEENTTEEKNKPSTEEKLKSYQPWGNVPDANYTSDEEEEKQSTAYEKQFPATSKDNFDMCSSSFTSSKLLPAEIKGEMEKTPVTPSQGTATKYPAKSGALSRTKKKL
CDK2 CCNE1 (human), sequence (P24864 whole entry, looked up, other chains not shown): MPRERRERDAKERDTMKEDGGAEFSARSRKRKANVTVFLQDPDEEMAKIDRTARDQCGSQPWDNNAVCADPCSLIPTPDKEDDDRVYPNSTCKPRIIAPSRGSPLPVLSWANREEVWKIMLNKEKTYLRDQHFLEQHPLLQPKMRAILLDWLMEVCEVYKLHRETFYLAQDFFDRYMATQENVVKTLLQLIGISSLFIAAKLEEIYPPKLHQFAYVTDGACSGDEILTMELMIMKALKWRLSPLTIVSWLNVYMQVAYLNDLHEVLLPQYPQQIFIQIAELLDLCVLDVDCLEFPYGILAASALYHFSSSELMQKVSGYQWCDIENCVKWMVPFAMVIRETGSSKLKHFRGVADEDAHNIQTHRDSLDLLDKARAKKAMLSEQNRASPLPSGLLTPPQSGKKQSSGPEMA
CDK3 CCNE1 (human), sequence (P24864 whole entry, looked up): as the sequence (P24864 whole entry, looked up, other chains not shown) above
CDK3 CCNE1 (human), sequence (Q00526 whole entry, looked up): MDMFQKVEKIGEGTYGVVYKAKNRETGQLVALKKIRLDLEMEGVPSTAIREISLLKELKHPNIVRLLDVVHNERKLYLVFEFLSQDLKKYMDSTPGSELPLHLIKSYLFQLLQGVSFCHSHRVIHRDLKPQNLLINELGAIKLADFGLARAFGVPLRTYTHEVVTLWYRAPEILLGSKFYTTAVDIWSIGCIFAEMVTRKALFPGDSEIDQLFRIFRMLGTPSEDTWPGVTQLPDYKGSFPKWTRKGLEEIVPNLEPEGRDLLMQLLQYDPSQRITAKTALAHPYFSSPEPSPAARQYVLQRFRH
CDK9 CCNK (human), sequence (O75909 whole entry, looked up): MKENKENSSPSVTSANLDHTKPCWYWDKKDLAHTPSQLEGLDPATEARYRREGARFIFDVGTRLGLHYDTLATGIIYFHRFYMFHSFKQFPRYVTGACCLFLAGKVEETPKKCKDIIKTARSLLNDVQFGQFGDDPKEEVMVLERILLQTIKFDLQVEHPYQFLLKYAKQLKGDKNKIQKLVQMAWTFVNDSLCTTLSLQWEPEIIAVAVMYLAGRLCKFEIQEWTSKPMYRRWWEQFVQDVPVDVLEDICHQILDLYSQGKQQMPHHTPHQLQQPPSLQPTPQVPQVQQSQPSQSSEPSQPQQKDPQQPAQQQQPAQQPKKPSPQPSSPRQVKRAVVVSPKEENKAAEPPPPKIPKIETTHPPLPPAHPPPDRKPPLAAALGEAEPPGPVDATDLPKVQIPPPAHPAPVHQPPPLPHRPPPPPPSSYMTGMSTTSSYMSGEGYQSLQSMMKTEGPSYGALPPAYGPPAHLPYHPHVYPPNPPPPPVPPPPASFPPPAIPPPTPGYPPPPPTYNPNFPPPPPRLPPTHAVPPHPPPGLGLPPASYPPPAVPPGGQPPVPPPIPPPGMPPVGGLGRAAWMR
CDK9 CCNK (human), sequence (P50750 whole entry, looked up): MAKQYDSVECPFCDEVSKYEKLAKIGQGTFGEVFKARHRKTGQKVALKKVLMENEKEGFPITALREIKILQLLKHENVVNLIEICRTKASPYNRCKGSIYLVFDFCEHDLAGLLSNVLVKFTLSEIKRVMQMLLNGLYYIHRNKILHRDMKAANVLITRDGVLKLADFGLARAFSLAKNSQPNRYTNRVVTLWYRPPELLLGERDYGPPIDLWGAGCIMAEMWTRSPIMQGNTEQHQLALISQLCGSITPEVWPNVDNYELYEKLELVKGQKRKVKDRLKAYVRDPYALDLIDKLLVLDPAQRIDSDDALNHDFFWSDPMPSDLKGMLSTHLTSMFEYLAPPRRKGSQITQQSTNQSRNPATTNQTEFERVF
CDK9 CCNT1 (human), sequence (O60563 whole entry, looked up): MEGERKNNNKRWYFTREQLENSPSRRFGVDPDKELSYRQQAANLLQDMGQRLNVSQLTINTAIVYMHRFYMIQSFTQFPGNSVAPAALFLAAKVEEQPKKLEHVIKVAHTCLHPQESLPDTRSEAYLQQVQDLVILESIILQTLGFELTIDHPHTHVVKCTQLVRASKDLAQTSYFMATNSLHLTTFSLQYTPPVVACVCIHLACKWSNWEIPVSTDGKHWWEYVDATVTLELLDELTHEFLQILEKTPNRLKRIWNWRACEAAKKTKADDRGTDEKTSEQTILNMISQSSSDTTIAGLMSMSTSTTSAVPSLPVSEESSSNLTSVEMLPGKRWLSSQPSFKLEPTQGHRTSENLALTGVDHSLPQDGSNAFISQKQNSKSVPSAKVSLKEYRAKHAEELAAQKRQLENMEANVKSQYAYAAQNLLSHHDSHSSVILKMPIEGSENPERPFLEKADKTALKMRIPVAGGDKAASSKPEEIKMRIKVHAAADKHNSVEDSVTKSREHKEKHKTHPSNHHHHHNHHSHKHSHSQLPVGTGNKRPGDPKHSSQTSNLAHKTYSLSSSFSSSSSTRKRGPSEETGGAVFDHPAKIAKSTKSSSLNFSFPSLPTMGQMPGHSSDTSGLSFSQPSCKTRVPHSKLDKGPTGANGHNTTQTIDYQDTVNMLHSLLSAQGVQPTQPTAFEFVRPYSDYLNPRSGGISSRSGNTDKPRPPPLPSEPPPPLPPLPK
CDK9 CCNT1 (human), sequence (P50750 whole entry, looked up): as the sequence (P50750 whole entry, looked up) above
LTK (human), sequence (P29376 whole entry, looked up): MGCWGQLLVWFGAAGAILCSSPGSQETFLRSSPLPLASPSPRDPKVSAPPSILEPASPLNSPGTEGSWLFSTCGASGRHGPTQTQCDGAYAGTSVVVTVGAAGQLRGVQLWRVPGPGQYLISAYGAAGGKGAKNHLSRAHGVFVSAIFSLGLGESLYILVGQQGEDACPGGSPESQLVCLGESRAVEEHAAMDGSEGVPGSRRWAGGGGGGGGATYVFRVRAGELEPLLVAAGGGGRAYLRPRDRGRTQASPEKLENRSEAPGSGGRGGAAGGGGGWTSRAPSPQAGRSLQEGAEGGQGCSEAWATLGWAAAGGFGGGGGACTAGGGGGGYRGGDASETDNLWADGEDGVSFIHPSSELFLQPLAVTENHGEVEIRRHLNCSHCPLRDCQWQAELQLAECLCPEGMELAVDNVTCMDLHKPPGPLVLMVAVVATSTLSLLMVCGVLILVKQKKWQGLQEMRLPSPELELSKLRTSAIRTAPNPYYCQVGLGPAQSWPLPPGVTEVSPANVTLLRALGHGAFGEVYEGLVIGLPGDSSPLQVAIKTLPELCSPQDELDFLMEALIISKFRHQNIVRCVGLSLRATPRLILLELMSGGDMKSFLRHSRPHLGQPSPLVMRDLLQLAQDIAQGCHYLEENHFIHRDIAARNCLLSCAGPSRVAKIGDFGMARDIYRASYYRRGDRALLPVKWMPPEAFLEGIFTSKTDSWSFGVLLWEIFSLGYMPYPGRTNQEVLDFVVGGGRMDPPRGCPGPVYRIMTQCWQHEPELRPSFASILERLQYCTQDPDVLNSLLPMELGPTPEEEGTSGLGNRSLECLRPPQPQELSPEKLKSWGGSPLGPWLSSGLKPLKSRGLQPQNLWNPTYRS
CDK4 CCND3 (human), sequence (P11802 whole entry, looked up): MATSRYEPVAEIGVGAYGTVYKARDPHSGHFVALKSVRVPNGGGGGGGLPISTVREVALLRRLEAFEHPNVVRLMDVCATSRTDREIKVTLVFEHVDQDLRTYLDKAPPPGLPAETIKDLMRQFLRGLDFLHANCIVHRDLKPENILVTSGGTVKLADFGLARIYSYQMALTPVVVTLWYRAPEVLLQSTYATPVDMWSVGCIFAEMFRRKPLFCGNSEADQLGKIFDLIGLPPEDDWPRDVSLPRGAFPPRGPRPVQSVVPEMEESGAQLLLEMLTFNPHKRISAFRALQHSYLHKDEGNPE
CDK4 CCND3 (human), sequence (P30281 whole entry, looked up): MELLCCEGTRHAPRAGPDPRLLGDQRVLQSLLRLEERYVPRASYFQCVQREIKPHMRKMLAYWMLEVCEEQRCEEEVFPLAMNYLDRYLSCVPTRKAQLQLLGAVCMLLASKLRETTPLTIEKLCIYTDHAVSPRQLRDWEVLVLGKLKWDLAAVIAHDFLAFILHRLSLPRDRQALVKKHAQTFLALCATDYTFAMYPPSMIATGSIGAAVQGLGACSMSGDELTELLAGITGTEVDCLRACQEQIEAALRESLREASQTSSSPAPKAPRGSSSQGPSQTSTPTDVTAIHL

Structure (SMILES) | residual activity (CDK5 CDK5R1 p25 (human)) | residual activity (PRKCH (human)) | residual activity (CDK2 CCNE1 (human)) | residual activity (CDK5 CDK5R1 p35 (human)) | residual activity (CDK6 CCND3 (human)) | residual activity (CDK3 CCNE1 (human)) | residual activity (DYRK1B (human)) | residual activity (LTK (human)) | residual activity (CDK2 CCNA2 (human)) | residual activity (CDK1 CCNB1 (human)) | residual activity (MAP3K7 TAB1 (human)) | residual activity (CDK9 CCNK (human)) | residual activity (CDK9 CCNT1 (human)) | residual activity (CDK6 CCND1 (human)) | residual activity (CDK1 CCNA2 (human)) | residual activity (STK33 (human)) | residual activity (CDK4 CCND1 (human)) | residual activity (CDK4 CCND3 (human)) | residual activity (CDK7 CCNH MNAT1 (human)) | further results
CCOc1nc(NC(=O)Cc2cc(OC)ccc2OC)cc(N)c1C#N | 96.8% | 94.3% | 88.9% | 105% | 98.6% | 97.7% | 99.2% | 97.3% | 104% | 108% | 96.6% | 89.2% | 100% | 95.2% | 92.2% | 97.7% | 97.6% | 95.2% | 103% | 
Cc1cc(Nc2cc(N3CCN(C)CC3)nc(Sc3ccc(NC(=O)C4CC4)cc3)n2)[nH]n1 | 93.8% | 111% | 94.4% | 100% | 121% | 95.3% | 98.8% | 84.2% | 87.8% | 102% | 90.7% | 102% | 93.1% | 95.2% | 99.1% | 90.1% | 97.4% | 99.2% | 101% | residual activity (AURKB (human)): 4.89%; residual activity (FLT3 (human)): 6.67%; residual activity (AURKC (human)): 40.4%
O=C1Nc2ccc3ncsc3c2/C1=C/c1c[nH]cn1 |  | 41.2% |  |  |  |  | 11.3% | 83% |  |  |  |  |  |  |  | 35.7% |  |  |  | residual activity (NEK7 (human)): 79.6%; residual activity (NEK6 (human)): 93.2%
NC(=O)c1ccc(-c2nc(-c3ccccn3)c(-c3ccc4c(c3)OCCO4)[nH]2)cc1 | 91% | 83.3% | 93.5% | 98% | 104% | 99.4% | 100% | 93.5% | 95% | 83.9% | 104% | 97.1% | 96.8% | 106% | 97.1% | 98.3% | 84% | 94.1% | 97.6% | 
